From PMC7079008, “Compactness of Protein Folds Alters Disulfide‐Bond Reducibility by Three Orders of Magnitude: A Comprehensive Kinetic Case Study on the Reduction of Differently Sized Tryptophan Cage Model Proteins” (Chembiochem, 2019)

Test: TCEP stability in phosphate buffer by 31P NMR
Assay type: physicochemical
Details: 50 mM phosphate buffer, room temperature, over 14 days
Procedure: Due to the acidic nature of TCEP, to avoid any pH shift, a phosphate buffer (50 mM, pH 7) was used to sustain near‐physiological pH. The groups of Han39 and Whitesides37 described the chemical instability of TCEP above pH 7 in 300–400 mM phosphate buffer.
NMR spectroscopy: All ^1H NMR spectroscopy experiments were performed on a Bruker Avance III 700 MHz spectrometer equipped with a z‐gradient 5 mm probe head operating at 700.13 MHz for ^1H, whereas ^31P NMR spectroscopy experiments were performed on a Bruker Avance 250 spectrometer with a 5 mm SB quad probe head.

TCEP oxidation or degradation: no significant spectral changes
Structure (SMILES): O=C(O)CCP(CCC(=O)O)CCC(=O)O [TCEP, tris(2‐carboxyethyl)phosphine]
